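Tested at 5 concentrations; 48 h exposure; 96-well plates; endpoints linearly interpolated, else capped at highest concentration. TGI: concentration producing complete growth inhibition.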
Tests used:
Assay in all cases: NCI tumour cell line growth inhibition, 48 h
MCF7 breast = tested on: MCF7 breast
MOLT-4 leukemia = tested on: MOLT-4 leukemia
SK-MEL-5 melanoma = tested on: SK-MEL-5 melanoma
SR leukemia = tested on: SR leukemia
MDA-N = tested on: MDA-N
UACC-257 melanoma = tested on: UACC-257 melanoma
786-0 renal = tested on: 786-0 renal
A549 NSCLC = tested on: A549 NSCLC
NCI/ADR-RES ovarian = tested on: NCI/ADR-RES ovarian
SNB-19 CNS = tested on: SNB-19 CNS
NCI-H23 lung = tested on: NCI-H23 lung

Structure (SMILES)	TGI (MCF7 breast) [µM]	TGI (MOLT-4 leukemia) [µM]	TGI (SK-MEL-5 melanoma) [µM]	TGI (SR leukemia) [µM]	TGI (MDA-N) [µM]	TGI (UACC-257 melanoma) [µM]	TGI (786-0 renal) [µM]	TGI (A549 NSCLC) [µM]	TGI (NCI/ADR-RES ovarian) [µM]	TGI (SNB-19 CNS) [µM]	TGI (NCI-H23 lung) [µM]
O=C1NCC(NC(=O)C(F)(F)F)c2c(Br)sc(Br)c21 (stereo unspecified)	> 100	> 100	> 100	> 100	> 100	> 100	> 100	> 100	> 100	> 100	> 100
O=C(Nc1ccccc1F)c1cc2ccc(O)cc2oc1=Nc1ccccc1F	11.3	6.11	3.85	5.37	5.27	10.1	3.34	5.89	5.93	18.6	4.52
CCCCNC(=S)N/N=C/c1cccc(C)n1	> 100	55.1	> 100	> 100	> 100	> 100	> 100	> 100	> 100	> 100	> 100
CNc1ncnc2c1cnn2COCC(O)CO (stereo unspecified)	> 100	> 100	> 100	> 100	> 100	> 100	> 100	> 100	> 100	> 100	> 100
N#CC(N=Nc1ccc(Cl)cc1)c1nc2ccccc2o1 (stereo unspecified)	> 100	> 100	> 100	> 100	> 100	> 100	> 100	> 100	> 100	> 100	98.2
NNC1=N/C(=C\c2ccco2)C(Cl)=N1	> 100	34.9	> 100	72.1	> 100	> 100	> 100	> 100	> 100	> 100	> 100
CC(C)(C)OC(=O)NCCC(N)=S	> 100	> 100	> 100	> 100	> 100	> 100	> 100	> 100	> 100	> 100	> 100
O=C(Oc1cc(=O)c(OC(=O)c2ccccc2)co1)c1ccccc1	> 100	> 100	> 100	> 100	> 100	> 100	> 100	> 100	> 100	> 100	> 100
O=[N+]([O-])c1ccc(/C=C/c2cc(-c3ccccc3)nc3ccc4ccccc4c23)cc1	> 100	> 100	> 100	> 100	> 100	> 100	> 100	> 100	> 100	> 100	> 100
C/C1=C\CC[C@@]2(C)O[C@@H]2C[C@@H](C2(C)CO2)CC/C(C)=C/CC1 (stereo partly specified)	37.1	> 100	47.1	> 100	69.7	> 100	31.8	36.5	46.8	41.3	48.8
COC(=O)c1cc2c(cc1CC1Cc3cc4c(cc3C1)CCC4)CCC2	91.2	36.9	> 100	47.2	> 100	80.9	> 100	> 100	> 100	> 100	> 100
C(/C=C(\Nc1ccccc1)C12CC3CC(CC(C3)C1)C2)=Nc1ccccc1	59.4	22.9	28	30.4	30.9	73.3	29.3	73.3	42.5	33.9	36.8
COc1cc(-c2cc(=O)c3cc4c(=O)cc(-c5cc(OC)c(OC)c(OC)c5)oc4cc3o2)cc(OC)c1OC	> 100	> 100	> 100	> 100	> 100	> 100	39	> 100	> 100	59.6	> 67.8
CSc1c(C#N)c(N)n(-c2ccc(C)cc2)c(=O)c1C#N	> 100	> 100	> 100	> 100	> 100	> 100	> 100	> 100	> 100	> 100	> 100
COC(=O)CN1c2nc(C#N)c(C#N)nc2N(CC(=O)OC)c2nc(C#N)c(C#N)nc21	18.4	> 22	> 53.8	6.66	> 100	> 100	5.21	> 82.8	> 100	> 65.9	> 29.8
CCc1c[n+]([O-])c(C)cc1[N+](=O)[O-]	> 100	> 100	> 100	> 100	> 100	> 100	> 100	> 100	> 100	> 100	> 100
C(=Nc1ccc(-c2nc3ccccc3o2)cc1)c1ccco1	> 100	> 100	> 100	> 100	> 100	> 100	> 100	–	> 100	> 100	> 100
